Source: US12037344B2, “NLRP3 modulators” (INNATE TUMOR IMMUNITY, INC., priority 2018, dated 2024)
Read-outs that look alike come from different tables or passages of the source.

What was measured:
THP-1 cells = assay: Measurement of IL-1β production, hTRF protocol (second alternative procedure), THP-1 cells; type: cell-based, human; conditions: read-out: NLRP3 hILIB EC50
Procedure: Measurement of IL-1β Production—hTRF Protocol (Second Alternative Procedure)
Serial dilutions of compounds in DMSO were added to low volume 384 well plates at 100 nl/well using an ECHO 550 acoustic dispenser (Labcyte) to achieve final starting concentration of 10 μM in assay.
THP-1 cells in RPMI (Gibco, 11875) media with 10% FBS at a density of 1×10^6 cell/ml in a T175 flask were treated with a final concentration of phorbol 12-myristate 13-acetate (PMA) (Sigma, P1585) of 50 ng/ml overnight at 37° C. at 5% CO2 for differentiation. Cells were harvested the next day after rinsing well with dPBS using 0.5% trypsin. A cell solution was prepared of 1×10^6 cells/ml for 50,000 cells in 50 μl/well in RPMI media with 2% FBS. Cells were plated using a multichannel pipette onto the compound dilutions in Greiner, 384 well, black clear bottom tissue culture treated plates (781090). The plates were incubated in 37° C. incubator at 5% CO2 for 2 hours.
After the 2 hour incubation, the cell plates were spun in the centrifuge for 5 minutes at 1200 rpm. Using the Felix (CyBio), 8 μl of the supernatant was transferred to 384 well, low volume, white proxy plates. (Perkin Elmer, 6008230). A human IL1beta hTRF kit was used to analyze the supernatant (CISBIO, 62HIL1BPEG). The kit instructions were followed for preparing the IL1Beta standard curve and then the antibodies from the kit were diluted 1:40 rather than 1:20 as kit instructed. Once combined, the antibodies were added across the plates, 5 μl/well. The plates were sealed and incubated at 4° C. overnight. The plates were then read on the Perkin Elmer EnVision at 665/615 nm using the hTRF laser.

TLR7 = target: T1, TLR7 (Homo sapiens, UniProt Q9NYK1); assay: In vitro human TLR7 binding reporter assay (HEK-Blue, NF-kB/AP1-inducible SEAP); type: cell-based; conditions: read-out: TLR7 Agonist EC50
T1 construct: human HEK-Blue cells co-expressing a TLR7 or TLR8 gene
T1 sequence (Q9NYK1 27-1049): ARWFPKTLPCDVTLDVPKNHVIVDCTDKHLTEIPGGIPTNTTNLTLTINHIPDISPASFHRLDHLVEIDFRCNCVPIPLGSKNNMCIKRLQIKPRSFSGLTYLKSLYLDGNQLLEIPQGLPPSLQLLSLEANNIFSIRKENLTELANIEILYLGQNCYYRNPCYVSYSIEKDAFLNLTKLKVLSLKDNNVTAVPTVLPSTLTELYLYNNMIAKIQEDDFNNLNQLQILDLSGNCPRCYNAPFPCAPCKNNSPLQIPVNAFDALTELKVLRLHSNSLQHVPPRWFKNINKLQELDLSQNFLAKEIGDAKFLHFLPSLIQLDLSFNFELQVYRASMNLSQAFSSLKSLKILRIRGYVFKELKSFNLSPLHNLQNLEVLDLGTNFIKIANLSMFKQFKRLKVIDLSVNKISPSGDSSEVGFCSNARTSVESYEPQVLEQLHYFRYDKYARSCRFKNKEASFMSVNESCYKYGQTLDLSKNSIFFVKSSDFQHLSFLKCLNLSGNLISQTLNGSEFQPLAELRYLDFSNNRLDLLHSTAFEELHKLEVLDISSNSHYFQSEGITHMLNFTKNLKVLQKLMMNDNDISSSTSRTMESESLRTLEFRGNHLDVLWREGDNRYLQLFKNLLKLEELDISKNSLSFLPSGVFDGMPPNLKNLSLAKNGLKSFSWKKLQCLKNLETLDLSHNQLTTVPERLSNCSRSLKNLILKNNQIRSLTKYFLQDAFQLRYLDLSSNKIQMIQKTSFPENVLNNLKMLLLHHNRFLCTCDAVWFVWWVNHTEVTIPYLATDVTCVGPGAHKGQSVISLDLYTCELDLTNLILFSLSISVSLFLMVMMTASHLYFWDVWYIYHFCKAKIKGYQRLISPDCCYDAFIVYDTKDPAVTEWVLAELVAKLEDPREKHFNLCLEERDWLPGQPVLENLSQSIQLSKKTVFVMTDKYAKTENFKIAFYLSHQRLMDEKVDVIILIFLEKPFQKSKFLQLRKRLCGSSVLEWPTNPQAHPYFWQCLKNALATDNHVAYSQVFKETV
Procedure: (§1) In Vitro Human TLR7 and TLR8 Binding Reporter Assays
(§2) Logarithmically-growing human HEK-Blue cells co-expressing a TLR7 or TLR8 gene and a NF-kB/AP1-inducible SEAP (secreted embryonic alkaline phosphatase; Invivogen, San Diego, CA) reporter gene are added to individual wells of a 384-well plate (15,000 cells per 20 μL per well) and maintained for 24 h at 37° C., 5% CO2. Test compounds or DMSO are distributed to separate wells the next day using acoustic liquid handling technology (100 nL per well) and cells are subsequently incubated for 18 h at 37° C., 5% CO2. Cellular SEAP production is measured using an Envision plate reader instrument thirty minutes after adding freshly-made Quanti-Blue reagent (prepared by following manufacturer instructions; Invivogen, San Diego, CA) to the HEK-Blue TLR Nf-kB-SEAP cell reactions. All EC50 values (half-maximal effective concentration) are determined using proprietary data analysis software. Normalized EC50 value=absolute value determined by setting 100% Ymax using a reference standard RLU (relative light unit) values from cells treated with 50 μM of the reference standard.

TLR8 = target: T2, TLR8 (Homo sapiens, UniProt Q9NR97); assay: In vitro human TLR8 binding reporter assay (HEK-Blue, NF-kB/AP1-inducible SEAP); type: cell-based; conditions: read-out: TLR8 Agonist EC50
T2 construct: human HEK-Blue cells co-expressing a TLR7 or TLR8 gene
T2 sequence (Q9NR97 27-1041): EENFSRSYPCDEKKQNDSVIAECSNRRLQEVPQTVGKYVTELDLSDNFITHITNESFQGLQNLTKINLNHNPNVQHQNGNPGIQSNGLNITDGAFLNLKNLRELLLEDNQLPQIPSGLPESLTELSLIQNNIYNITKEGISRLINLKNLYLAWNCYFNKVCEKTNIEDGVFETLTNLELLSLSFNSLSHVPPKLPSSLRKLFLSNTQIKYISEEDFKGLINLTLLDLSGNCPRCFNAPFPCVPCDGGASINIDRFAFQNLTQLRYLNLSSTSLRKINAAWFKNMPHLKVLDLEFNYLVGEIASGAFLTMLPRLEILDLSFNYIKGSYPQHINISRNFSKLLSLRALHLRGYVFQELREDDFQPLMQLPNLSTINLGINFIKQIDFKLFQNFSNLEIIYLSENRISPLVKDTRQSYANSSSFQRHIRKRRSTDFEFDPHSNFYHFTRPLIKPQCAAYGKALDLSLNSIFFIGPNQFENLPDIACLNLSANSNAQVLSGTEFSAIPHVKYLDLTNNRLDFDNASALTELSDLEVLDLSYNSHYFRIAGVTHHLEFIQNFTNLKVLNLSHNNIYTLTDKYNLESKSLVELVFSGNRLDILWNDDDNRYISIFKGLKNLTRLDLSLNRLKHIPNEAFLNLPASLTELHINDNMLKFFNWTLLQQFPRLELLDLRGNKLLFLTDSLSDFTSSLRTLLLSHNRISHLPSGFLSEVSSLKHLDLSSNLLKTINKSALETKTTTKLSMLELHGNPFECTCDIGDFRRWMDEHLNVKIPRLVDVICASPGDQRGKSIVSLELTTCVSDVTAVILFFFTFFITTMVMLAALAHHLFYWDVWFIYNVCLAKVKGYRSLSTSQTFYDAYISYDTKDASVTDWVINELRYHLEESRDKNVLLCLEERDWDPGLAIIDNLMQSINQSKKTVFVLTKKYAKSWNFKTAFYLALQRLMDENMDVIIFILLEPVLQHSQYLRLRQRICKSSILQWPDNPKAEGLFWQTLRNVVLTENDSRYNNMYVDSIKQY
Procedure: as §1, §2

[1] = Homo sapiens, THP-1, IL-1β production, human cells
[2] = Homo sapiens, THP-1, IL-1β production, human

SMILES | EC50 (THP-1 cells; [1]) | EC50 (TLR7; activity range) | EC50 (TLR8; activity range) | EC50 (THP-1 cells; [2]) | EC50 (TLR7; activity range class) | EC50 (TLR8; activity range class) | EC50 (THP-1 cells; IL-1β production, human)
Nc1nc2cc(-c3cc[nH]n3)ccc2c2[nH]c(CCNC(=O)c3csc(Cl)n3)cc12 [Example 485] | 0.08 µM | > 100 µM | > 100 µM | – | – | – | –
CN(CCO)C(=O)Cn1cc2c(n1)c(N)nc1cc(-c3cc[nH]n3)ccc12 [Example 547] | 5.3 µM | > 100 µM | > 100 µM | – | – | – | –
Nc1nc2cc(-c3cc[nH]n3)ccc2c2cn(CCNC(=O)c3csc(Cl)n3)nc12 [Example 88] | – | – | – | 0.13 µM | 20 to 100 µM | 20 to 100 µM | –
N#CCCn1cc2c(N)nc3cc(-n4cccn4)ccc3c2n1 [Example 557] | 0.42 µM | > 100 µM | > 100 µM | – | – | – | –
Cc1c(CN[C@H]2CCOC2)[nH]c2c1c(N)nc1cc(-c3cc[nH]n3)ccc12 [Example 469] | 0.84 µM | > 100 µM | > 100 µM | – | – | – | –
Nc1nc2cc(-c3ccn[nH]3)ccc2c2nn(CC3(C(=O)N4CCCC4)CC3)cc12 [Example 607] | 13.4 µM | > 100 µM | > 100 µM | – | – | – | –
Nc1nc2cc(-c3cc[nH]n3)ccc2c2cn(CCNC(=O)c3ccc(F)cn3)nc12 [Example 31, N-{2-[4-amino-7-(1H-pyrazol-3-yl)-2H-pyrazolo[3,4-c]quinolin-2-yl]ethyl}-5-fluoropyridine-2-carboxamide] | – | – | – | 0.15 µM | 20 to 100 µM | 1 to 20 µM | –
Nc1nc2cc(-c3cc[nH]n3)ccc2c2nn(CCCN3CCOCC3)cc12 [Example 213] | – | – | – | 3.21 µM | > 100 µM | > 100 µM | –
CS(=O)(=O)CCCn1cc2c(N)nc3cc(-n4cccn4)ccc3c2n1 [Example 387] | – | – | – | 2.3 µM | > 100 µM | > 100 µM | –
Nc1nc2cc(-c3cc[nH]n3)ccc2c2nn(C3CCCC3O)cc12 (single isomer, unassigned) [Example 340] | – | – | – | – | > 100 µM | > 100 µM | 0.62 µM
CC(C)(N)Cn1cc2c(N)nc3cc(-c4ccn[nH]4)ccc3c2n1 [Example 267] | – | – | – | 1.07 µM | > 100 µM | > 100 µM | –
Nc1nc2cc(-c3cc[nH]n3)ccc2c2c1cnn2CC(F)F [Example 225] | – | – | – | 0.2 µM | > 100 µM | > 100 µM | –
N#CC1(C(=O)NCCn2cc3c(n2)c(N)nc2cc(-c4cc[nH]n4)ccc23)CC1 [Example 182] | – | – | – | 1.27 µM | > 100 µM | > 100 µM | –
Nc1nc2cc(-c3cc[nH]n3)ccc2c2[nH]c(CNCCO)cc12 [Example 494] | 1.89 µM | > 100 µM | > 100 µM | – | – | – | –
CC(C)(C(=O)N1CCCC1)n1cc2c(N)nc3cc(-c4cc[nH]n4)ccc3c2n1 [Example 509] | 6.95 µM | > 100 µM | > 100 µM | – | – | – | –
Nc1nc2cc(-c3ccn[nH]3)ccc2c2nn(CCNC(=O)c3ccc(F)cn3)nc12 [Example 160] | – | – | – | 0.7 µM | > 100 µM | > 100 µM | –
N#CC[C@H](O)Cn1cc2c(N)nc3cc(-c4cc[nH]n4)ccc3c2n1 [Example 380] | – | – | – | 0.77 µM | > 100 µM | > 100 µM | –
CC(C)NC(=O)C(C)Cn1cc2c(N)nc3cc(-c4cc[nH]n4)ccc3c2n1 (stereo not drawn) [Example 614] | 11.6 µM | > 100 µM | > 100 µM | – | – | – | –
CNC(=O)Cn1cc2c(N)nc3cc(-c4cc[nH]n4)ccc3c2n1 [Example 461] | 0.25 µM | > 100 µM | > 100 µM | – | – | – | –
Nc1nc2cc(-c3cc[nH]n3)ccc2c2nn(CC(O)CO)cc12 (stereo not drawn) [Example 234] | – | – | – | 0.56 µM | > 100 µM | > 100 µM | –
CCC(=O)NCCn1cc2c(n1)c(N)nc1cc(-c3cc[nH]n3)ccc12 [Example 48] | – | – | – | 5.2 µM | > 100 µM | > 100 µM | –
